According to US6153740A, “cDNA encoding nucleoside transporter” (University of Alberta, priority 1997, dated 2000):
“Also recorded” adds a separate entry of the source. Where two headings read alike, the source gives them in different places.

Legend:
CNT1 [1] = target: T1, CNT1 (Rattus norvegicus, UniProt Q62674); assay: inhibition of CNT1-mediated nucleoside (uridine, AZT, ddC) transport in Xenopus oocytes; format: cell-based; details: for effect on expressed uridine fluxes/transport: inhibitor 1 mM; for selective inhibition of uridine and thymidine fluxes (rCNT1): adenosine, cytidine, uridine>>guanosine, inosine
T1 sequence (Q62674 1-648): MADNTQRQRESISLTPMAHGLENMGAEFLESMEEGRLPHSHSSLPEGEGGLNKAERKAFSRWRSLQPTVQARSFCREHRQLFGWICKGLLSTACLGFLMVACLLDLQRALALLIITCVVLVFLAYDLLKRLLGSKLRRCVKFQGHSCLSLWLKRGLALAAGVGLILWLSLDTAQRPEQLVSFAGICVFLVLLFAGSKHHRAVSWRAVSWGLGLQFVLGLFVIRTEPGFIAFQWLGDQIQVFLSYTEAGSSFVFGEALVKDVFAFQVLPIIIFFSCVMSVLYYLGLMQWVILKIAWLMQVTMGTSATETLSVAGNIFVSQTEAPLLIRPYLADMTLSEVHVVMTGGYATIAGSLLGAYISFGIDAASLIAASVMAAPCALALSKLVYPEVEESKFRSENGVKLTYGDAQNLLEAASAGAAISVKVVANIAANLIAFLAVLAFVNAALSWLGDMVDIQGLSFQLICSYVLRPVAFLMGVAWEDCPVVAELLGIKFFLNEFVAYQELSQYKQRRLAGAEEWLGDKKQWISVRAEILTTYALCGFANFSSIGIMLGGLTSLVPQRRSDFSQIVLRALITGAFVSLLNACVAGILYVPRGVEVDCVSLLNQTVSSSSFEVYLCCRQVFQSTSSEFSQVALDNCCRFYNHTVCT
Description: (§1) Oocytes were injected with water or RNA transcribed in vitro from the nucleoside transporter cDNA (pQQH1). […] For panels c and d, the permeant concentration was 10 μM and competing nonradioactive nucleosides were present at a concentration of 1 mM.
(§2) Remaining template was removed by digestion with RQ1 DNase. Oocytes were treated with collagenase to remove follicular layers (Huang et al, 1993) and injected with 10 ng of pQQH1 cRNA or water. […] At the end of the incubation, extracellular label was removed by six rapid ice-cold washes in the appropriate transport buffer. Individual oocytes were dissolved in 5% SDS for quantitation of oocyte-associated ^3 H by liquid scintillation counting (LS 6000 IC, Beckman).

hCNT1a [2] = target: T2, hCNT1a (Homo sapiens, UniProt O00337); assay: inhibition of hCNT1a-mediated influx of [3H]uridine in Xenopus oocytes; details: uridine 10 μM; for inhibition of uridine fluxes, hCNT1a: competitor 1 mM (FIG. 12A), guanosine also in FIG. 13
T2 sequence (O00337 with tags, fused parts or gaps E34G/INS140V): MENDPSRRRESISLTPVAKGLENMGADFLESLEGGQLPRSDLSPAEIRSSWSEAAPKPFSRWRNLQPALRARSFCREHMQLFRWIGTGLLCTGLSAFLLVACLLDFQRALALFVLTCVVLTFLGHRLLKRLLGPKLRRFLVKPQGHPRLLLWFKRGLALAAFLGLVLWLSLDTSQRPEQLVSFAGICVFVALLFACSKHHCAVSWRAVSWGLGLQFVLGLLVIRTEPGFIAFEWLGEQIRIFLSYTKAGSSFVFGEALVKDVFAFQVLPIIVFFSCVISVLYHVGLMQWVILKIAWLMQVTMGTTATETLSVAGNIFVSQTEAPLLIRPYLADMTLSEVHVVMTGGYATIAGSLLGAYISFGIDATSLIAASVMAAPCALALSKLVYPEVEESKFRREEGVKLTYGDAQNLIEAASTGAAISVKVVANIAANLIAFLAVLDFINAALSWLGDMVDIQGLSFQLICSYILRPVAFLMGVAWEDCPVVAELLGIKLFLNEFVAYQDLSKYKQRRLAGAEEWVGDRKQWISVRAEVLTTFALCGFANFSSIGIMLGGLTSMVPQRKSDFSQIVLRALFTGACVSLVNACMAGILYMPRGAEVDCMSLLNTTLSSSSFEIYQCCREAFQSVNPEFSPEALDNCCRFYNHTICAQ
Description: H2 O, water-injected oocytes. Fluxes were not corrected for the contribution of endogenous transport activity.
(§3) Defolliculated oocytes (Huang et al. 1993) were injected with either 10 nl of water containing 10 ng RNA transcript or 10 nl of water alone. Nucleoside uptake was measured after 3 d and was traced with the respective [^3 H] or [^14 C]nucleoside (Moravek Biochemicals)(5 μC 3H/ml, 1 μC 14C/ml). […] The transport buffer for adenosine influx experiments contained 1 μM deoxycoformycin to inhibit adenosine deaminase activity. Results are presented as means ±SEM for 10-12 individual oocytes. Kinetic constants were determined by non-linear regression analysis (ENZFITTER, Elsevier-Biosoft). Each experiment was performed at least twice on different batches of oocytes.

hCNT1b [3] = target: T3, hCNT1b (Homo sapiens, UniProt O00337); assay: inhibition of hCNT1b-mediated influx of [3H]uridine in Xenopus oocytes; format: cell-based; details: uridine 10 μM; for inhibition of uridine fluxes, hCNT1b: competitor 1 mM (FIG. 12B)
T3 sequence (O00337 2-649 V189I/N409S/D521N): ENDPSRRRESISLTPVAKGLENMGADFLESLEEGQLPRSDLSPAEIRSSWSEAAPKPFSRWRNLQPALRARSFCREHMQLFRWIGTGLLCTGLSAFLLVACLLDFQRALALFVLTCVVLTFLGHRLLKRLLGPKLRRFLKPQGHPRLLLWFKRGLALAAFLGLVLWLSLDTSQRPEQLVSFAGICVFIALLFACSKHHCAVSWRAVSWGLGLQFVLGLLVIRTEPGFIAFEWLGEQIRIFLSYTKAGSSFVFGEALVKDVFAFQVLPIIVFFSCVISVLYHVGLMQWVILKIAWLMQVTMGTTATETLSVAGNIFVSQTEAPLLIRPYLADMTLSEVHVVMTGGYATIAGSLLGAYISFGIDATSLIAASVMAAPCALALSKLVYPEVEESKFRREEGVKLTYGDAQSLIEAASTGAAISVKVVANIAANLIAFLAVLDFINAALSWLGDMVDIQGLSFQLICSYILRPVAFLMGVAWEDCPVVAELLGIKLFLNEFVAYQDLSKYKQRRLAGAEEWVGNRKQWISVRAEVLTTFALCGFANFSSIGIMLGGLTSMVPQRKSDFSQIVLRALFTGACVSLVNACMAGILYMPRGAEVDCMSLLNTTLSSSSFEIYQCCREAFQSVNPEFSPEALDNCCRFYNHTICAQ
Source text: H2 O, water-injected oocytes.

[4] = tested on: human erythrocyte es transporter; details: cited from earlier work
human erythrocytes = details: cited from earlier work
CNT1 [5] = target: T1, CNT1; assay: uptake/influx of radiolabelled nucleosides in Xenopus oocytes injected with pQQH1 (rat CNT1) cRNA; format: cell-based; details: for Vmax: rat CNT1, permeant = labelled substance
Description: as §1
Oocytes injected with water or in vitro transcribed RNA from pQQH1 were incubated with radiolabeled permanent (10 μM) for 30 min (open columns) or 1 h (hatched columns) at 20° C. Each value represents the mean ±S. E. of 8-10 ooctyes.
as §2

hCNT1a [6] = target: T2, hCNT1a; assay: influx of radiolabelled nucleosides in Xenopus oocytes injected with hCNT1a RNA transcript
Description: Oocytes were injected with either water alone or water containing hCNT1a RNA transcript.
Oocytes were injected with either water alone (.tangle-solidup.) or water containing hCNT1a RNA transcript (.smallcircle.,.circle-solid.).
Adenosine, guanosine and AZT (10 μM) fluxes were compared in the same batch of oocytes injected either with water (open columns) or with RNA transcript for hCNT1a or rCNT1 (hatched and solid columns, respectively).
as §3

hCNT1b [7] = target: T3, hCNT1b; assay: influx of radiolabelled nucleosides in Xenopus oocytes injected with hCNT1b RNA transcript; format: cell-based
Description: as §3

rat jejunum = assay: uptake of [3H]AZT by rat jejunum in vivo
[8] = substrate: O=c1ccn([C@@H]2O[C@H](CO)[C@@H](O)[C@H]2O)c(=O)[nH]1; assay: cells, lysate or membranes; details: other: hCNT1a; 20.0 °C
[9] = 10 μM, same experiment as adenosine (FIG. 14A)

Molecule: O=c1ccn([C@@H]2O[C@H](COP(=O)(O)OP(=O)(O)O)[C@@H](O)[C@H]2O)c(=O)[nH]1 [UDP]
- effect on expressed uridine fluxes/transport (CNT1 [1]): no effect

Molecule: O=c1ccn([C@@H]2O[C@H](COP(=O)(O)O)[C@@H](O)[C@H]2O)c(=O)[nH]1 [UMP]
- effect on expressed uridine fluxes/transport (CNT1 [1]): no effect

Molecule: O=c1ccn([C@@H]2O[C@H](COP(=O)(O)OP(=O)(O)OP(=O)(O)O)[C@@H](O)[C@H]2O)c(=O)[nH]1 [UTP]
- effect on expressed uridine fluxes/transport (CNT1 [1]): no effect

Molecule: O=c1cc[nH]c(=O)[nH]1 [Uracil]
- effect on expressed uridine fluxes/transport (CNT1 [1]): no effect

Molecule: Nc1ccn([C@@H]2O[C@H](CO)[C@@H](O)[C@H]2O)c(=O)n1 [cytidine]
- inhibition of uridine fluxes, hCNT1a (hCNT1a [2]): inhibited
- inhibition of uridine fluxes, hCNT1b (hCNT1b [3]): inhibited
- selective inhibition of uridine and thymidine fluxes (rCNT1) (CNT1 [1]): selective inhibition

Molecule: Nc1ccn([C@H]2CC[C@@H](CO)O2)c(=O)n1 [ddC, 2',3'-dideoxycytidine]
- Km ([4]; Domin et al, 1993): 23000 µM
- transport by equilibrative nucleoside transporters [4]: low affinity es substrate
- rate of entry into human erythrocytes relative to those of thymidine and cytidine (human erythrocytes): < 2%
- inhibition of hCNT1a-mediated influx of uridine (hCNT1a [2]; analog 5 mM (FIG. 12A)): inhibited
- inhibition of hCNT1b-mediated influx of uridine (hCNT1b [3]; analog 5 mM (FIG. 12B)): inhibited
- CNT1-mediated uptake/transport (CNT1 [5]; 10 μM permeant): large increases
- Na+ dependence of initial rate of expressed uptake (CNT1 [5]; 10 μM, 10-min flux): 93%
- Vmax (CNT1 [5]): 20 pmol/oocyte.min^-1
- IC50 (CNT1 [1]): < 1000 µM

Molecule: Nc1nc2c(ncn2[C@H]2CC[C@@H](CO)O2)c(=O)[nH]1 [ddG, 2',3'-dideoxyguanosine]
- effect on expressed uridine fluxes/transport (CNT1 [1]): no effect

Molecule: OC[C@@H]1CC[C@H](n2cnc3c(O)ncnc32)O1 [ddl, 2',3'-dideoxyinosine]
- effect on expressed uridine fluxes/transport (CNT1 [1]): no effect

Molecule: Nc1nc2c(ncn2[C@@H]2O[C@H](CO)[C@@H](O)[C@H]2O)c(=O)[nH]1 [guanosine]
- permeant quality, hCNT1 (hCNT1a [6]): poor CNT1 permeant; also recorded: poor hCNT1 permeants
- mediated flux, hCNT1a (hCNT1a [6]; 10 μM permeant (FIG. 14)): 0.06±0.01 pmol/oocyte.10 min^-1
- inhibition of uridine fluxes, hCNT1a (hCNT1a [2]): not and not inhibited
- inhibition of uridine fluxes, hCNT1b (hCNT1b [3]): not
- fluxes, hCNT1b (results not shown) (hCNT1b [7]): very low guanosine fluxes
- mediated flux, rCNT1 (CNT1 [5]; 10 μM permeant (FIG. 14)): 0.05±0.01 pmol/oocyte.10 min^-1
- selective inhibition of uridine and thymidine fluxes (rCNT1) (CNT1 [1]): >>guanosine, inosine

Molecule: OC[C@H]1O[C@@H](n2cnc3c(O)ncnc32)[C@H](O)[C@@H]1O [inosine]
- inhibition of uridine fluxes, hCNT1a (hCNT1a [2]): not
- inhibition of uridine fluxes, hCNT1b (hCNT1b [3]): not
- selective inhibition of uridine and thymidine fluxes (rCNT1) (CNT1 [1]): >>guanosine, inosine

Molecule: Cc1cn([C@H]2C[C@H](O)[C@@H](CO)O2)c(=O)[nH]c1=O [thymidine]
- inhibition of uridine fluxes, hCNT1a (hCNT1a [2]): inhibited
- inhibition of uridine fluxes, hCNT1b (hCNT1b [3]): inhibited
- selective inhibition of uridine and thymidine fluxes (rCNT1) (CNT1 [1]): selective inhibition

Molecule: O=c1ccn([C@@H]2O[C@H](CO)[C@@H](O)[C@H]2O)c(=O)[nH]1 [uridine]
- uridine influx in Na+-medium (hCNT1a [6]; 10 μM, 100 mM NaCl (FIG. 9)): 4.88±0.70 pmol/oocyte.min^-1
- uridine influx in choline-medium (hCNT1a [6]; 10 μM, 100 mM choline chloride (FIG. 9)): 0.18±0.01 pmol/oocyte.min^-1
- uridine flux, hCNT1a (hCNT1a [6]; [9]): 3.68±0.46 pmol/oocyte.min^-1
- Na+-independent uridine influx (hCNT1a [6]; 50 μM uridine (FIG. 11)): 0.81±0.14 pmol/oocyte.min^-1
- Vmax, influx of uridine (hCNT1a [6]; hCNT1a): 26±1 pmol/oocyte.min^-1
- inhibition of uridine fluxes, hCNT1a (hCNT1a [2]): inhibited
- inhibition of uridine fluxes, hCNT1b (hCNT1b [3]): inhibited
- Vmax, influx of uridine (hCNT1b [7]; hCNT1b): 22±2 pmol/oocyte.min^-1
- Km (hCNT1b [7]; read-out: apparent Km, influx of uridine, hCNT1b): 37 ± 10 µM
- intracellular concentration higher than that in the extracellular medium (CNT1 [5]; 10 μM uridine, 30 min): approximately 6 -fold
- cellular content of uridine after 30 min (CNT1 [5]; 10 μM, 20° C., 30 min, pQQH1 cRNA-injected): 64 pmol/oocyte
- uridine flux, rCNT1 (CNT1 [5]; [9]): 5.60±0.38 pmol/oocyte.min^-1
- effect of substitution of Cl- by gluconate on flux (CNT1 [5]; 100 mM NaCl or sodium gluconate, 10 mM HEPES, pH 7.6): unaffected
- Vmax (uridine transport) (CNT1 [5]; rat CNT1): 21 pmol/oocyte-min^-1
- Vmax (CNT1 [5]): 21 pmol/oocyte.min^-1
- inhibition at 1000 µM (CNT1 [1]; read-out: inhibition of expressed AZT uptake): > 95%
- inhibition at 1000 µM (CNT1 [1]; read-out: inhibition of expressed ddC uptake): > 95%
- inhibition of [3H]AZT uptake by rat jejunum in vivo (rat jejunum): inhibited by uridine

B1: hCNT1a (Homo sapiens) (protein)
chain: T2 sequence (O00337 with tags, fused parts or gaps E34G/INS140V)
- Km [8]: 45 ± 8 µM
